According to US11738091B2, “Method for terminating cancer cells with an azole-based compound” (Imam Abdulrahman Bin Faisal University, priority 2019, dated 2023):

Experiments:
HCT-116 cells [1] = experiment: Cancer cell morphology by inverted microscope; type: cell-based, human; conditions: 48 hours, 200x magnification
Source text: Cells, Nanomed., Biotechnol. 2018, (doi: 10.1080/21691401.2018.1491476). […] 1, Conj. 2, Conj. 3, Conj. 4, Conj. 5 respectively.
CANCER CELL MORPHOLOGY: After the treating the HTC-116 cells with Conj. 1, Conj. 2, Conj. 3, Conj. 4, Conj. 5, the cells were observed using an inverted microscope (TS100F Eclipse, Nikon, Japan) to evaluate the anatomical and morphological changes.

HCT-116 cells [2] = experiment: MTT assay of cancer cell viability; conditions: for attenuating cancer cells proliferation (in words) / effect on cancer cell survivability (in words) / comparison among the five conjugates in decreasing cancer cells proliferation: HCT-116; for dose dependence of effect on cancer cells viability: HCT-116, MTT staining; for comparison among the five conjugates in decreasing cancer cells proliferation: versus Conj. 1, Conj. 2 and Conj. 5
Experimental: CANCER CELL TREATMENTS: Human colorectal carcinoma cells (HCT-116) cells were grown according to a method described in Khan, F. A.; Akhtar, S.; Almohazey, D.; Alomari, M.; Almofty, S. A.; Eliassari, A. “Fluorescent magnetic submicronic polymer (FMSP) nanoparticles induce cell death in human colorectal carcinoma cells” Artif Artif. Cells, Nanomed., Biotechnol. 2018, (doi: 10.1080/21691401.2018.1491476). HCT-116 cells were grown in Dulbecco Modified Eagle Medium (DMEM), 10% fetal bovine serum, L-glutamine, selenium chloride, penicillin, and streptomycin. The cells were cultured in a CO2 incubator (Heracell 150i, Thermo-scientific, USA) at 37° C. under 5% CO2 for 48 to 72 hours. Confluenced cells were seeded into 96-well cell plates and, once the cells became 80% confluenced, the cancer cells were treated with different concentrations ([…]) of Conj. 1, Conj. 2, Conj. 3, Conj. 4, Conj. 5 respectively. […] Each sample was taken in triplicate to obtain a statistical analysis.
CANCER CELLS VIABILITY BY MTT ASSAY: To examine effect of Conj. 1, Conj. 2, Conj. 3, Conj. 4, Conj. 5 on cancer cells, a 3-(4,5-dimethylthiazol-2-yl)-2,5-diphenyltetrazolium bromide (MTT) assay was conducted on the cells. The cancer cells were seeded at 6×10^4 cells/mL concentration in 96-well culture plates containing DMEM, 10% Fetal bovine serum, penicillin, and streptomycin and were incubated in CO2 incubator until the cells were 80% confluenced. The cancer cells were then treated with Conj. 1, Conj. 2, Conj. 3, Conj. 4, Conj. 5 at concentrations of 1.3, 3.26, and 6.5 mg/mL, whereby no conjugate was added in the control groups. A 5.0 mg/mL MTT solution was added into each well, and the cells were again incubated for 4 hours in the CO2 incubator and finally media was changed with the addition of DMSO. The samples were then measured using an ELISA plate reader (Biotek Instruments, USA) at wavelength 570 nm.
The following formula was used to calculate percentage of cell viability: % of Cell viability=[Optical density (O.D) of Conj. 1, Conj. 2, Conj. 3, Conj. 4, or Conj. 5 cells]/[Optical density (O.D) of control cells]×100.
1, Conj. 2, Conj. 3, Conj. 4, Conj. 5 treated groups were calculated. All statistical analyses were completed with GraphPad Prism 6 (GraphPad Software). The difference between control and Conj. 1, Conj. 2, Conj. 3, Conj. 4, Conj. 5 groups by a one-way ANOVA test (*p<0.05, **p<0.01; ***p<0.001) was taken as statistically significant.

Substance	cancer cell morphology (HCT-116 cells [1]; HCT-116, 1.3 mg/mL)	cancer cell morphology (HCT-116 cells [1]; HCT-116, 3.26 mg/mL)	cancer cell morphology (HCT-116 cells [1]; HCT-116, 6.5 mg/mL)	attenuating cancer cells proliferation (in words) (HCT-116 cells [2])	effect on cancer cell survivability (in words) (HCT-116 cells [2])	dose dependence of effect on cancer cells viability (HCT-116 cells [2])	comparison among the five conjugates in decreasing cancer cells proliferation (HCT-116 cells [2])
SiO2-3GPS-Atet [Conj. 3]	significant levels of nucleus condensation and nuclear augmentation	nuclear condensation and augmentation of cancer cells	significant loss of cell population	highly effective	profound effects	dose dependent effects	more effective
SiO2-3GPS-Atri [Conj. 2]	strong nucleus condensation and nuclear augmentation	further nucleus condensation and augmentation	significant loss of cell population	highly effective	profound effects	dose dependent effects	
SiO2-3GPS-Btri [Conj. 4]	disintegration of cancer cell bodies	strong nuclear condensation and augmentation	strong nuclear condensation and augmentation	highly effective	profound effects	dose dependent effects	more effective
SiO2-3GPS-Imi [Conj. 5]	high levels of nucleus condensation and nuclear augmentation	strong nuclear condensation and augmentation and the beginning of cell membrane disruption and cell death	significant loss of cell population	highly effective	profound effects	dose dependent effects	
SiO2-3GPS-Tri [Conj. 1]	strong nucleus condensation and nuclear augmentation	further nucleus condensation and augmentation	significant loss of cell population	highly effective	profound effects	dose dependent effects	
